The results in this text go back to patent US10538521B2, “Pyrimidine derivative having antimalarial activity” (CARNA BIOSCIENCES, INC., priority 2016, dated 2020).

Structures can show the parent of a compound that is named as a salt. Where two headings read alike, the source gives them in different places. Where only a bound is given, the exact number is not on record here.

The test system of assay [1] is P. berghei N strain (drug sensitive strain). Description: In vivo antimalarial assay, mouse model infected with rodent malaria. Conditions: Plasmodium berghei, ip, 96 h, read-out: Therapeutical Effect (%) inhibition; for inhibition in vivo at 3 mg/kg: 3 mg/kg i.p. As for the experimental part: In vivo antimalarial activity of the compound of the present invention was determined using a mouse model infected with rodent malaria P. berghei N strain (drug sensitive strain) by slightly modifying the method described in the above publication of Otoguro et al. (2001) and the method reported by Peters et al. (Peters, W., Portus, J. H. and Robinson, B. L.: The chemotherapy of rodent malaria. XXII. The value of drug-resistant strains of P. berghei in Screening for blood schizonticidal activity. Ann. Trop. Med. Parasitol., 69: 155-171, (1975)). The P. berghei N strain was generous gift from Dr. W. Peters (Northwick Park Institute for Medical Research, Middlesex, United Kingdom).
A group of three ICR male mice (Charles River Laboratories Japan, Inc.) weighing 18 to 20 g was used as a test animal. Using protozoa maintained and sub-cultured by in vivo passage, 2×10^6 parasite-infected erythrocytes were pre pared, and the mice were infected therewith by tail vein injection. For the therapeutic test, a 1-day suppressive test was performed. The day of infection was defined as day 0. Two hours after the infection, a solution of the test compound (solvent: 3% DMSO/0.5% methylcellulose400-solution or suspension) was administered intraperitoneally (i.p.) once to 3 times. On day 4, blood smear preparation was prepared by collecting from the tail vein and the ratio of parasite-infected erythrocytes (parasitaemia) was investigated to determine the therapeutic effect (inhibition percentage) based on the infection rate of the group to which the compound was not administered. The significance test was performed by Dunnett's test.

For assay [2], the system named is K1 strain, a drug resistant strain of Plasmodium falciparum. Description: In vitro antimalarial assay (p-LDH, Malstat), K1 strain. Type of assay: cell-based. Conditions: read-out: Antimalarial activity (IC50 value), Strain K1. In short, it runs like this: (§1)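 IC50 derived from concentration-response of parasite lactate dehydrogenase signal (Malstat reagent, NBT/PES formazan at 655 nm) after freeze-thaw lysis. Infected erythrocytes (hematocrit 2%, parasitaemia 0.5 or 1%) exposed 72 h to 12.5–0.0001 μM final compound under 3% O2-4% CO2-93% N2, FCR3 and K1 alike.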

Assay [3] concerns FCR3 strain, a drug sensitive strain of Plasmodium falciparum. Description: In vitro antimalarial assay (p-LDH, Malstat), FCR3 strain. Type of assay: cell-based. Conditions: read-out: Antimalarial activity (IC50 value), Strain FCR3. In short, it runs like this: as §1
Where [4] appears, read: 10 mg/kg i.p., administered once, parasitaemia on day 4, ICR mice.
Where [5] appears, read: P. falciparum K1 (drug resistant), 72 h culture, p-LDH readout.
The mark [6] stands for this setting: P. falciparum FCR3 (drug sensitive), 72 h culture, p-LDH readout.
Setting [7] is: 10 mg/kg i.p., administered three times (day 0, 1 and 2), parasitaemia on day 4, ICR mice.
[8] abbreviates: 10 mg/kg i.p., administered twice (day 0 and 1), parasitaemia on day 4, ICR mice.

In the case of `Cc1cccc(Nc2nc(Nc3ccn4ccnc4c3)cc(N3CCCCC3)n2)n1` [Example 28, N4-(imidazo[1,2-a]pyridin-7-yl)-N2-(6-methylpyridin-2-yl)-6-(piperidin-1-yl)pyrimidine-2,4-diamine], the inhibition in vivo at 10 mg/kg in assay [1] (setting [4]) worked out at 51.4%. Moreover, the IC50 in assay [2] (setting [5]) and in assay [3] (setting [6]) was less than 100 nM in each case.
For the compound `Cc1cc(C)nc(Nc2nc(Nc3ccn4ccnc4c3)cc(N3CCCCC3)n2)c1` [Example 32, N2-(4,6-dimethylpyridin-2-yl)-N4-(imidazo[1,2-a]pyridin-7-yl)-6-(piperidin-1-yl)pyrimidine-2,4-diamine], the inhibition in vivo at 10 mg/kg in assay [1] (setting [4]) stood at 47.5%. The IC50 in assay [2] (setting [5]) and in assay [3] (setting [6]) was less than 100 nM in each case.
On to `Cc1ccnc(Nc2nc(Nc3ccn4ccnc4c3)cc(N3CCCCC3)n2)c1` [Example 34, N4-(imidazo[1,2-a]pyridin-7-yl)-N2-(4-methylpyridin-2-yl)-6-(piperidin-1-yl)pyrimidine-2,4-diamine], for which, in assay [1] (setting [4]), the inhibition in vivo at 10 mg/kg was 51.5%. Moreover, the IC50 in assay [2] (setting [5]) is less than 100 nM; in assay [3] (setting [6]) it was 100 to 1000 nM.
For `CCc1ccnc(Nc2nc(Nc3ccn4ccnc4c3)cc(N3CCOCC3)n2)c1` [Example 68, N2-(4-ethylpyridin-2-yl)-N4-(imidazo [1,2-a]pyridin-7-yl)-6-morpholinopyrimidine-2,4-diamine], the inhibition in vivo at 10 mg/kg in assay [1] (setting [4]) was 41.7%. Further, the IC50 in assay [2] (setting [5]) and in assay [3] (setting [6]) was less than 100 nM each time.
With `COc1ccnc(Nc2nc(Nc3ccn4ccnc4c3)cc(N3CCCCC3)n2)c1` [Example 93, N4-(imidazo[1,2-a]pyridin-7-yl)-N2-(4-methoxypyridin-2-yl)-6-(piperidin-1-yl)pyrimidine-2,4-diamine], the inhibition in vivo at 3 mg/kg in assay [1] (administered twice (day 0 and 1), parasitaemia on day 4, ICR mice) came out at 64.2%. In addition, the IC50 in assay [2] (setting [5]) and in assay [3] (setting [6]) was less than 100 nM throughout.
In the case of `CCc1ccnc(Nc2nc(Nc3ccn4ccnc4c3)cc(N3CCCC3)n2)c1` [Example 94, N2-(4-ethylpyridin-2-yl)-N4-(imidazo[1,2-a]pyridin-7-yl)-6-(pyrrolidin-1-yl)pyrimidine-2,4-diamine], in assay [1] (administered once, parasitaemia on day 4, ICR mice), the inhibition in vivo at 3 mg/kg came to 42.9%. Further, the IC50 in assay [2] (setting [5]) and in assay [3] (setting [6]) was less than 100 nM in each case.
For the compound `CCCc1cccc(Nc2nc(Nc3ccn4ccnc4c3)cc(N3CCCCC3)n2)n1` [Example 105, N4-(imidazo[1,2-a]pyridin-7-yl)-6-(piperidin-1-yl)-N2-(6-propylpyridin-2-yl)pyrimidine-2,4-diamine], the inhibition in vivo at 10 mg/kg in assay [1] (setting [4]) was 41.9%. Moreover, the IC50 in assay [2] (setting [5]) and in assay [3] (setting [6]) was less than 100 nM throughout.
Consider `CCCCc1cccc(Nc2nc(Nc3ccn4ccnc4c3)cc(N3CCCCC3)n2)n1` [Example 106, N2-(6-butylpyridin-2-yl)-N4-(imidazo[1,2-a]pyridin-7-yl)-6-(piperidin-1-yl)pyrimidine-2,4-diamine], for which the inhibition in vivo at 10 mg/kg in assay [1] (setting [7]) stood at 87.4%. Further, the half-inhibitory concentration (IC50) in assay [2] (setting [5]) and in assay [3] (setting [6]) was less than 100 nM each time.
With `CCc1ccnc(Nc2nc(Nc3ccn4ccnc4c3)cc(N3CCC(OC)CC3)n2)c1` [Example 114, N2-(4-ethylpyridin-2-yl)-N4-(imidazo[1,2-a]pyridin-7-yl)-6-(4-methoxypiperidin-1-yl)pyrimidine-2,4-diamine], the inhibition in vivo at 10 mg/kg in assay [1] (setting [4]) stood at 70.9%. Moreover, the IC50 in assay [2] (setting [5]) and in assay [3] (setting [6]) was less than 100 nM each time.
Take `Cc1cc(C)nc(Nc2nc(Nc3ccn4ccnc4c3)cc(N3CCC(C)(C)C3)n2)c1` [Example 142, N2-(4,6-dimethylpyridin-2-yl)-6-(3,3-dimethylpyrrolidin-1-yl)-N4-(imidazo[1,2-a]pyridin-7-yl)pyrimidine-2,4-diamine]: the inhibition in vivo at 10 mg/kg in assay [1] (setting [7]) was determined as 84.5%. Moreover, the IC50 in assay [2] (setting [5]) and in assay [3] (setting [6]) was less than 100 nM in each case.
Regarding `Cc1cc(C)nc(Nc2nc(Nc3ccn4ccnc4c3)cc(N3CC(C)C(C)C3)n2)c1` (stereo not drawn) [Example 147, N2-(4,6-dimethylpyridin-2-yl)-6-(3,4-dimethylpyrrolidin-1-yl)-N4-(imidazo[1,2-a]pyridin-7-yl)pyrimidine-2,4-diamine formate], the inhibition in vivo at 10 mg/kg in assay [1] is 83.4%. Also, the IC50 was less than 100 nM in assay [2] (K1, 72 h) and less than 100 nM in assay [3] (FCR3, 72 h).
Take `CC(C)Cc1cccc(Nc2nc(Nc3ccn4ccnc4c3)cc(N3CCCC3)n2)n1` [Example 161, N4-(imidazo[1,2-a]pyridin-7-yl)-N2-(6-isobutylpyridin-2-yl)-6-(pyrrolidin-1-yl)pyrimidine-2,4-diamine]: the inhibition in vivo at 10 mg/kg in assay [1] (setting [8]) came to 64.3%. Moreover, the IC50 in assay [2] (setting [5]) and in assay [3] (setting [6]) was less than 100 nM each time.
Turning to `CCCCc1cccc(Nc2nc(Nc3ccn4ccnc4c3)cc(N3CCCC3)n2)n1` [Example 165, N2-(6-butylpyridin-2-yl)-N4-(imidazo[1,2-a]pyridin-7-yl)-6-(pyrrolidin-1-yl)pyrimidine-2,4-diamine], the inhibition in vivo at 10 mg/kg in assay [1] (setting [8]) came to 98%. Also, the IC50 in assay [2] (setting [5]) and in assay [3] (setting [6]) was less than 100 nM each time.
Take `CCc1ccnc(Nc2nc(Nc3ccn4ccnc4c3)cc(N3CCC(C)(C)C3)n2)c1` [Example 170, 6-(3,3-dimethylpyrrolidin-1-yl)-N2-(4-ethylpyridin-2-yl)-N4-(imidazo[1,2-a]pyridin-7-yl) pyrimidine-2,4-diamine]: the inhibition in vivo at 10 mg/kg in assay [1] (setting [4]) came to 92.9%. The IC50 in assay [2] (setting [5]) and in assay [3] (setting [6]) was less than 100 nM throughout.
Consider `Cc1cc(C)nc(Nc2nc(Nc3ccn4ccnc4c3)cc(N3CCC4(CCCC4)C3)n2)c1` [Example 174, N2-(4,6-dimethylpyridin-2-yl)-N4-(imidazo[1,2-a]pyridin-7-yl)-6-(2-azaspiro[4.4]nonan-2-yl)pyrimidine-2,4-diamine], for which the inhibition in vivo at 10 mg/kg in assay [1] (setting [8]) amounted to 93.6%. For the same compound, the IC50 in assay [2] (setting [5]) and in assay [3] (setting [6]) was less than 100 nM in each case.
